Where “and” joins values, the source holds several entries; their conditions need not be identical. Identical values can stand only once. Like-named read-outs stand apart in the source and are kept apart here.
Tests used:
[1] = Passage on the culture model of the blood-brain barrier (bidirectional permeability); format: in vitro ADME, rat; settings: rat, 10 μM; for Papp A→B at 60 min, 10 μM / Papp A→B at 30 min, 10 μM: AB (from blood to brain) direction; for Papp B→A at 60 min, 10 μM / Papp B→A at 30 min, 10 μM: BA (from brain to blood) direction; for efflux ratio at 60 min, 10 μM: read-out: Efflux ratio: Papp BA/PappAB
Text: (§1) The blood-brain barrier model prepared by the co-cultivation of three cell types (primary rat brain endothelial cells, primary glia and brain microvascular pericyte cells) was used for the permeability experiments (Nakagawa S, Deli M A, Kawaguchi H, Shimizudani T, Shimono T, Kittel A, Tanaka K, Niwa M. Anew blood-brain barrier model using primary rat brain endothelial cells, pericytes and astrocytes. Neurochem Int. 2009 March-April; 54(3-4):253-63. doi: 10.1016/j.neuint.2008.12.002.; Veszelka S, Tóth A E, Walter F R, Datki Z, Mózes E, Fülöp L, Bozsó Z, Hellinger E, Vastag M, Orsolits B, Környei Z, Penke B, Deli M A. Docosahexaenoic acid reduces amyloid-β induced toxicity in cells of the neurovascular unit. J Alzheimers Dis. 2013; 36(3):487-501.).
(§2) Passage of the compounds of the invention was tested in two directions AB (“from blood to brain”) and BA (“from brain to blood”), in 10 μM concentration.
(§3) The permeability experiment took 60 minutes, with sampling at 30 and 60 minutes from the acceptor compartment.
(§4) The concentrations of the active substances passed through the endothelial cell layer were determined with mass spectrometry. By using the measured concentrations and the known data (volume, starting concentration) the clearance (μl) values, or from the clearance and volume data, by taking the surface and the time into consideration, the so-called permeability coefficients (papp, apparent permeability coefficient; measurement unit 10^−6 cm/s) were calculated, which provide the permeation rates of the compounds.

[2] = tested on: blood-brain barrier model (co-cultivation of primary rat brain endothelial cells, primary glia and brain microvascular pericyte cells); test: as above; format: in vitro ADME; settings: for Efflux ratio: Papp BA/PappAB / Papp A-B 30′ / Papp A-B 60′ / Papp B-A 30′ / Papp B-A 60′ / Passage through the blood-brain barrier compared to the 24/1 and 24/2 comparative compounds: 10 μM; for Papp A-B 30′ / Papp A-B 60′: AB (from blood to brain) direction; for Papp A-B 30′ / Papp B-A 30′: sampling at 30 minutes; for Papp A-B 30′ / Papp A-B 60′ / Papp B-A 30′ / Papp B-A 60′: single replicates; for Papp A-B 60′ / Papp B-A 60′: sampling at 60 minutes; for Papp B-A 30′ / Papp B-A 60′: BA (from brain to blood) direction; for Passage through the blood-brain barrier compared to the 24/1 and 24/2 comparative compounds: FIG. 2; for Permeability grade in words: blood-brain barrier model
Text: as §1, §2, §3, §4

[3] = tested on: fEPSP from the stratum radiatum layer of the CA1 region of the hippocampus; test: In vitro electrophysiology on hippocampal brain slices (fEPSP amplitude, CA1); format: cell-based, Wistar rats; settings: for fEPSP amplitude, minutes 31-40 of recording (washing in phase): normalized to the averages of the amplitudes of the control phase, last 10 minutes of washing in; for fEPSP amplitude, minutes 61-70 of recording (washing off phase): after 200 μM, normalized to the control phase, last 10 minutes of recording
Protocol: In the course of our experiments young adult (200-250 g) male Wistar rats were used. Until the start of the experiments the animals were housed in the animal house of the Department of Physiology, Anatomy and Neuroscience, University of Szeged, in standard plastic cages, where 12-12 hours light-dark cycles, standard 23° C. temperature and free access to water and food were provided. In the course of the experiments we aimed at using a minimum number of animals and to cause them the smallest degree of suffering. In each case the principles relating to the care of laboratory animals, the animal care related protocol approved by the Hungarian Health Committee (1998), and the Decree of the Council of the European Communities of 22 Sep. 2010 (2010/63/EU) were followed.
The animals received Isoflurane (3% and then 1%) inhalation anaesthesia for the electrophysiological measurements. After ensuring that the animals were in a deep sleep phase (the paw withdrawal reflex occurring for squeezing stopped), they were decapitated. By incising the head skin and the underlying connective tissue the skull was exposed. Then incisions were made in longitudinal direction along the sagittal suture as well as in transversal direction along the suture coronalis, furthermore caudally therefrom in the right and left direction. After the opening the bregma coronalis incisions were made behind the bulbi and in front of the cerebellum, allowing the removal of the approx. 3 mm thick brain region, containing the hippocampus. From the middle part of the hippocampus 350 μm thick slices were prepared with vibratome (Leica VT1200S, Germany). The cutting was performed in artificial cerebrospinal fluid (aCSF), whose temperature was 4° C. maximum. The aCSF was composed of: 130 mM NaCl, 3.5 mM KCl, 1 mM NaH2PO4, 24 mM NaHCO3, 1 mM […], 3 mM MgSO4 and 10 mM D-glucose (Sigma, Germany). The cut slices were placed in recording aCSF of room temperature, whose composition differed only in the 3 mM CaCl2) and 1.5 MgSO4 concentrations from the one used for cutting. Both the cutting and the recording aCSF were oxygenated with carbogen (95% O2, 5% CO2), for providing the suitable and uninterrupted O2 supply. After the preparation of all the hippocampal slices the recording aCSF in the slice holder container was warmed to 34-35° C., and the brain slices were left to recover for one hour under these conditions in order to assure the proceeding of the regeneration processes started against the damages caused in the course of the slice-preparation. […]
For the electrophysiological recordings a concentric stainless steel electrode (Neuron elektród kft; Budapest, Hungary) was placed in the stratum radiatum layer between the CA3-CA1 regions of the hippocampus, wherein the stimulation was performed with constant current intensity, with 0.2 ms pulses of 0.033 Hz frequency. By positioning the recording electrodes of 2-3 MΩ filled with aCSF in orthodrom position from the previously mentioned region, stimulating postsynaptic field potentials (fEPSP) were conducted from the stratum radiatum layer of the CA1 region, and their amplitudes were monitored.
Submaximal stimulation was used, i.e. about 70-80% of the intensity of the smallest pulse causing the fEPSP of maximum amplitude was used. […] The results were evaluated with the OriginPro 8 (OriginLab Corporation, Northampton, Mass., USA) software. […]

[4] = Solubility compared to previously synthesized analogues (statement); format: physicochemical
[5] = average, n=6, read-out: Papp A-B Average
[6] = sampling at 60 minutes, single replicates, read-out: Papp A-B 60′
[7] = average, n=6, read-out: Papp B-A Average
[8] = sampling at 60 minutes, single replicates, read-out: Papp B-A 60′

SMILES | Papp A→B at 60 min, 10 μM [1, 5] [×10⁻⁶ cm/s] | Papp A→B at 30 min, 10 μM ([1]; single replicates) [×10⁻⁶ cm/s] | Papp A→B at 60 min, 10 μM [1, 6] [×10⁻⁶ cm/s] | Papp B→A at 60 min, 10 μM [1, 7] [×10⁻⁶ cm/s] | Papp B→A at 30 min, 10 μM ([1]; single replicates) [×10⁻⁶ cm/s] | Papp B→A at 60 min, 10 μM [1, 8] [×10⁻⁶ cm/s] | efflux ratio at 60 min, 10 μM [1] | Papp A-B 30′ [2] | Papp A-B 60′ [2] | Papp B-A 30′ [2] | Papp B-A 60′ [2] | Passage through the blood-brain barrier compared to the 24/1 and 24/2 comparative compounds [2] | also measured
Cl.O=C(NCCN1CCCC1)c1cc(O)c2ccccc2n1 [comparative 24/1, 4-hydroxy-N-(2-(pyrrolidin-1-yl)ethyl)quinoline-2-carboxamide, reference compound] | 5.7 | 5.4 | 7.2 | 8.8 | 8.3 | 12.2 | ~1 | 4.5 10^−6 cm/s and 7.4 10^−6 cm/s | 3.9 10^−6 cm/s and 5.8 10^−6 cm/s | 8.1 10^−6 cm/s and 4.2 10^−6 cm/s | 10.5 10^−6 cm/s and 9.2 10^−6 cm/s | – | Efflux ratio: Papp BA/PappAB [2]: 1.5
CN(C)CCNC(=O)c1cc(O)c2ccccc2n1.Cl [comparative 24/2, N-(2-(dimethylamino)ethyl)-4-hydroxyquinoline-2-carboxamide, reference compound] | 6.7 | 4.2 | 6 | 8.1 | 7.6 | 9.7 | ~1 | 8.3 10^−6 cm/s and 6.4 10^−6 cm/s | 8.4 10^−6 cm/s and 6.7 10^−6 cm/s | 7.9 10^−6 cm/s and 7.2 10^−6 cm/s | 7.9 10^−6 cm/s and 8.5 10^−6 cm/s | – | Efflux ratio: Papp BA/PappAB [2]: 1.2
O=C(NCCN1CCCC1)c1nc2ccccc2c(O)c1CN1CCOCC1 [Example 20, 4-hydroxy-3-(morpholinomethyl)-N-(2-(pyrrolidin-1-yl)ethyl)quinoline-2-carboxamide] | 18.6 | 16.4 | 16.9 | 25 | 22.3 | 24.9 | ~1 | 20.1 10^−6 cm/s and 17.9 10^−6 cm/s | 21.5 10^−6 cm/s and 18.8 10^−6 cm/s | 24.3 10^−6 cm/s and 25.1 10^−6 cm/s | 26.7 10^−6 cm/s and 26.6 10^−6 cm/s | triple | fEPSP amplitude, minutes 31-40 of recording (washing in phase) ([3]; 200 μM): 58.14±10.16%; fEPSP amplitude, minutes 61-70 of recording (washing off phase) [3]: 107.14±17.99%; Solubility compared to previously synthesized analogues or other analogues with similar effect [4]: better solubility
O=C(O)c1cc(O)c2ccccc2n1 [kynurenic acid, 4-hydroxy-quinoline-2-carboxylic acid] | – | – | – | – | – | – | – | – | – | – | – | – | fEPSP amplitude decrease in the last 10 minutes of the washing in phase ([3]; 200 μM, preliminary experimental results): 53.86±6.09%
CCN(CC)Cc1c(C(=O)NCCN2CCCC2)nc2ccccc2c1O [Example 17, 3-((diethylamino)methyl)-4-hydroxy-N-(2-(pyrrolidin-1-yl)ethyl)quinoline-2-carboxamide] | – | – | – | – | – | – | – | – | – | – | – | – | fEPSP amplitude, minutes 31-40 of recording (washing in phase) ([3]; 200 μM): 124.66±10.43%; fEPSP amplitude, minutes 61-70 of recording (washing off phase) [3]: 110.73±7.63%

Continued, in another order:

Papp A→B at 60 min, 10 μM [1, 5] [×10⁻⁶ cm/s] | Papp A→B at 30 min, 10 μM ([1]; single replicates) [×10⁻⁶ cm/s] | Papp A→B at 60 min, 10 μM [1, 6] [×10⁻⁶ cm/s] | Papp B→A at 60 min, 10 μM [1, 7] [×10⁻⁶ cm/s] | Papp B→A at 30 min, 10 μM ([1]; single replicates) [×10⁻⁶ cm/s] | Papp B→A at 60 min, 10 μM [1, 8] [×10⁻⁶ cm/s] | efflux ratio at 60 min, 10 μM [1] | Papp A-B 30′ [2] | Papp A-B 60′ [2] | Papp B-A 30′ [2] | Papp B-A 60′ [2] | Passage through the blood-brain barrier compared to the 24/1 and 24/2 comparative compounds [2] | SMILES | also measured
36.9 | 32.7 | 37.8 | 22 | 20.1 | 21.7 | ~0.5 | 37.2 10^−6 cm/s and 38.0 10^−6 cm/s | 37.4 10^−6 cm/s and 38.6 10^−6 cm/s | 21.8 10^−6 cm/s and 21.3 10^−6 cm/s | 23.2 10^−6 cm/s and 23.8 10^−6 cm/s | six times higher | CN(C)CCNC(=O)c1nc2ccccc2c(O)c1CN1CCOCC1 [Example 16, N-(2-(dimethylamino)ethyl)-4-hydroxy-3-(morpholinomethyl)quinoline-2-carboxamide] | Permeability grade in words [2]: high permeability
11 | 7.4 | 12.4 | 5.4 | 2.5 | 7.6 | ~0.5 | – | – | – | – | doubled | Cl.O=C(O)c1nc2ccccc2c(O)c1CN1CCOCC1 [Example 5, 4-hydroxy-3-(morpholinomethyl)quinoline-2-carboxylic acid hydrochloride] | Papp A-B 30′ ([2]; hydrochloride): 8.9 10^−6 cm/s and 8.2 10^−6 cm/s; Papp A-B 60′ ([2]; hydrochloride): 15.4 10^−6 cm/s and 13.9 10^−6 cm/s; Papp B-A 30′ ([2]; hydrochloride): 4.0 10^−6 cm/s and 3.2 10^−6 cm/s; Papp B-A 60′ ([2]; hydrochloride): 7.8 10^−6 cm/s and 7.5 10^−6 cm/s; Permeability grade in words [2]: medium permeability
